Measured values taken from article PMC3574224, “Na^+ Regulation in the Malaria Parasite Plasmodiumfalciparum Involves the Cation ATPase PfATP4 and Is a Target of the Spiroindolone Antimalarials” (Cell Host & Microbe, 2013).

Columns and labels:
[1] = biological target: T1, membrane-associated ATPase activity in P. falciparum infected human erythrocytes (3D7) (Plasmodium falciparum, UniProt A0A143ZZK9); test: Membrane-associated ATPase activity (Pi production), infected erythrocyte membranes; format: biochemical; details: 50 nM
T1 construct: saponin-isolated parasites were lysed by suspension in ice-cold water; endogenous in cells; host or cells: membrane preparation of saponin-isolated mature trophozoite-stage P. falciparum 3D7 parasites
T1 sequence (A0A143ZZK9 whole entry): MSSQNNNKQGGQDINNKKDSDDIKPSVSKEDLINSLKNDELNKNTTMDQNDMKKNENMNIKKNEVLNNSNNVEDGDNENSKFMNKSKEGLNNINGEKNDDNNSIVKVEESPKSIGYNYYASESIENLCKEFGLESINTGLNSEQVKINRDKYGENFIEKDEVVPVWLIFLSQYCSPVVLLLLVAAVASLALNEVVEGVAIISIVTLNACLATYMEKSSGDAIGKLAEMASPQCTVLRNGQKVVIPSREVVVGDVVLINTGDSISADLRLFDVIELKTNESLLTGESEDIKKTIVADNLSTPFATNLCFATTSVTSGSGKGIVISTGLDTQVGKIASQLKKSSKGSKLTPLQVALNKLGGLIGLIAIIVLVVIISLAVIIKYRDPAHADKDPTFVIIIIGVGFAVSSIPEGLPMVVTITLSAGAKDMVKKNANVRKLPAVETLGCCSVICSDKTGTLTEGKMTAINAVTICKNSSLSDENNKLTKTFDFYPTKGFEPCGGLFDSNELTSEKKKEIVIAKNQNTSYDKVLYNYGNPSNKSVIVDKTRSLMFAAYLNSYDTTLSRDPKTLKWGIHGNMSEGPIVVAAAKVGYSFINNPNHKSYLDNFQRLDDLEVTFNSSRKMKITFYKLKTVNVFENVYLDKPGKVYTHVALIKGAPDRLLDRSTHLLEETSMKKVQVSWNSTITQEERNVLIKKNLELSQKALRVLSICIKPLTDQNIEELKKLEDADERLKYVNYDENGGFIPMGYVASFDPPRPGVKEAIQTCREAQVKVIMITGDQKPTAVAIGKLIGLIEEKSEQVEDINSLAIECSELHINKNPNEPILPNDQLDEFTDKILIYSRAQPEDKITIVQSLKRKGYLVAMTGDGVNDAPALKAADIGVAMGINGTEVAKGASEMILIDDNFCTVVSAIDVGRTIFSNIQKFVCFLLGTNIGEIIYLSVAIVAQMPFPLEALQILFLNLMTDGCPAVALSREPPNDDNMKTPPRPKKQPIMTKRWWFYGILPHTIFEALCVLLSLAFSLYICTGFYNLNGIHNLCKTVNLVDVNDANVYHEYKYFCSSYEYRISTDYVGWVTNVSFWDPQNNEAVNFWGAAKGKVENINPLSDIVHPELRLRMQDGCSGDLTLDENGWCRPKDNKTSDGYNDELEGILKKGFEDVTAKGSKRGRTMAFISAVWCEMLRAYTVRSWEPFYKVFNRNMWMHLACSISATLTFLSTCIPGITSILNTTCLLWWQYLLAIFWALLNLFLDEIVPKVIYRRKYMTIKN
Description: For the preparation of uninfected erythrocyte membranes, packed uninfected erythrocytes were lysed by incubation for 5 min in ice-cold PBS containing 0.1% (w/v) saponin together with 1/500 Protease Inhibitor Cocktail Set III (Calbiochem). The erythrocyte ghosts were pelleted by centrifugation (12,000 × g, 10 min) and washed three times in ice-cold water (12,000 × g, 10 min) immediately prior to their use in the ATPase assay. To prepare membranes from parasitised erythrocytes, saponin-isolated parasites were lysed by suspension in ice-cold water (containing 1/500 Protease Inhibitor Cocktail Set III) then washed three times in ice-cold water (12,000 × g, 10 min) before their immediate use in the ATPase assay. The ATPase activity of membrane preparations from uninfected erythrocytes and saponin-isolated parasites was estimated from the rate of hydrolysis of ATP and measured using the PiColorLock Gold Phosphate (Pi) Detection System (Innova Biosciences). Briefly, membrane preparations from 1–3 × 10^8 cells were suspended in reaction buffer (100 mM of either NaCl or choline chloride, 50 mM Tris-HCl, 20 mM KCl, and 2 mM MgCl2) at 37°C. The ATPase reaction was initiated by the addition of 0.25 mM Na2ATP. Note that it was necessary to use the Na^+ salt of ATP, rather than the K^+ and Mg^2+ salts, as the latter both contain residual Pi that saturated the Pi detection system. […]

P. falciparum parasites = test: Parasite proliferation, [^3H]hypoxanthine incorporation assay, 48 hr; format: cell-based; details: Plasmodium falciparum; mean ± SEM, number of independent experiments in parentheses; read-out: IC50 for inhibition of parasite proliferation
Description: Parasite growth assays were performed in 96-well plates over 48 hr (commencing at the ring stage) using a standard [^3H]hypoxanthine incorporation assay ([Desjardins et al., 1979]).
Dose-response curves were obtained using the expression y = y^min + y^max/(1 + [C/IC50]^b), where y is the parameter being measured (parasite proliferation, Na^+ influx, or ATPase activity), y^min is the minimum value of y, y^max is the maximum value of y, C is the concentration of the moiety that was varied in the experiment, IC50 is the concentration at which y was reduced to 50% of y^max, and b is a fitted constant.

[2] = tested on: P. falciparum Dd2^attB CAM I398F/P990R (mutant PfATP4 transfectant); test: Disruption of [Na^+]i regulation, SBFI-loaded trophozoites, Dd2^attB CAM I398F/P990R; format: cell-based; details: Plasmodium falciparum, from fitted curves, read-out: IC50 for disruption of Na^+ regulation by NITD246
Description: The [Na^+]i of saponin-isolated parasites was measured at 37°C using the Na^+-sensitive dye SBFI (Molecular Probes, Invitrogen) in conjunction with a PerkinElmer LS 50B Fluorescence Spectrometer fitted with a Dual Excitation Fast Filter. Saponin-isolated parasites were loaded with SBFI by suspension (at 1.40–1.80 × 10^8 cells/mL) for 20 min at 37°C in bicarbonate-free RPMI1640 supplemented with 20 mM D-glucose, 0.2 mM hypoxanthine, 25 mM HEPES, and 25 mg/L gentamycin sulfate (pH 7.10), to which SBFI-acetoxymethyl ester (5.5 μM) and Pluronic F-127 (0.01% w/v) were added. The dye-loaded cells were washed twice (12,000 × g, 0.5 min) in bicarbonate-free RPMI then incubated for a further 20 min at 37°C to allow for complete de-esterification of the dye before being resuspended at a final cell concentration of 1.5–2.5 × 10^7 cells/mL in standard saline. The dye-loaded cells were excited at 340 nm and 380 nm with fluorescence recorded at 490 nm. Calibration of the relationship between the 340/380 nm fluorescence ratio and [Na^+]i (see Figures S1A–S1C) was carried out as described previously ([Diarra et al., 2001]; [Harootunian et al., 1989]). Several inhibitors used in this study caused inner filter effects ([Gu and Kenny, 2009]; [Srinivas and Mutharasan, 1987]); in these cases calibration curves were generated with the inhibitors present. […]

C[C@H]1Cc2c([nH]c3cc(F)c(F)cc23)[C@@]2(N1)C(=O)Nc1ccc(Cl)cc12 [NITD246]
remaining activity at 0.05 µM ([1]; 100 mM Na^+, n = 5, p = 0.020, read-out: ATPase activity, % of the control value): 60%
Effect on ATPase activity ([1]; low (0.5 mM) [Na^+] medium, p = 0.63): no significant change
IC50 (P. falciparum parasites): 0.12 ± 0.02 nM
IC50 [2]: 3.9 ± 1.7 nM
